In one assay the test system is wakefulness. The note with it: subcutaneous delivery during the sleep period; cited from earlier work.
A further assay concerns the target T1, OX2R R328A (Homo sapiens, UniProt O43614, R328A).
T1 construct: expressed in transfected cells; host or cells: CHO-K1 stably expressing EA β-arrestin2
In words: β-arrestin PathHunter assay, OX2R R328A. The format is cell-based. The note with it: β-arrestin recruitment. Here is the method: β-Arrestin recruitment activity was measured by using the PathHunter system (DiscoveRX) according to the manufacturer’s instruction. Receptor constructs used were the full-length wild-type (or mutant) human OX2R sequences cloned into pCMV-ProLink (DiscoveRX). CHO-K1 cells stably expressing EA β-arrestin2 (DiscoveRX) were plated on 384 well white plates (Thermo Fisher) at 4000 cells/well in HamF12 (Wako Pure Chemical Industries) supplemented with 10% fetal bovine serum (Corning) and penicillin-streptomycin (Wako Pure Chemical Industries) and incubated overnight at 37 °C under 5% CO2. Cells were transfected with plasmids encoding wild type or each mutant ProLink-tagged human OX2R using FuGENE HD (Promega). […] Detection reagent was added and incubated for 1 h at room temperature. Luminescent signal was detected using an EnVision plate reader (PerkinElmer). β-arrestin assays on different constructs were performed in two or three independent experiments (each done in quadruplicate). Dose response curves (shown in Supplementary Fig. 8) were fitted to the three-parameter model ‘log(agonist) vs response’ in GraphPad Prism to determine pEC50 values.
A general note: Arrestin recruitment assays detect the binding of arrestin to an activated receptor.

The next assay concerns the target T2, OX1R S103T (Homo sapiens, UniProt O43613, S103T).
T2 construct: FLAG; expressed in transfected cells; host or cells: HEK293
T2 sequence (O43613 1-425 S103T): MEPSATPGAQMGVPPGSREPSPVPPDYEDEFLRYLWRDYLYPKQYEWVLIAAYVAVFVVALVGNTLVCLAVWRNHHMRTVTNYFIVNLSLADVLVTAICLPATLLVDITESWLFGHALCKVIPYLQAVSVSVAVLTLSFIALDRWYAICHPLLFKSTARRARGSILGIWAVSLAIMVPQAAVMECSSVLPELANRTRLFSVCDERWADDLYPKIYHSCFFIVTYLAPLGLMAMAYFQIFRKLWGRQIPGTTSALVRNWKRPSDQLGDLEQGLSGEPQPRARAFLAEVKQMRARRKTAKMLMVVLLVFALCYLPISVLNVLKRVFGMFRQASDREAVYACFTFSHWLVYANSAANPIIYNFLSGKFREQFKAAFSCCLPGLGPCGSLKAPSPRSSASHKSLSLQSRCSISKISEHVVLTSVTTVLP
As to the kind of experiment: IP accumulation assay, OX1R S103T. The format is cell-based. The source says:
(§1) The IP assay was adapted from a prior precedent. HEK293 cells were maintained in DMEM-high glucose (Millipore Sigma) supplemented with 5% fetal bovine serum (Corning) and penicillin-streptomycin (Millipore Sigma). Receptor constructs used were the full-length wild-type (or mutant) human OX1R and OX2R sequences cloned into pCDNA3. To enhance the Emax in the IP assay, a plasmid encoding full-length human Gαq subunit[66] was co-transfected into HEK293 cells with plasmids encoding orexin receptor constructs using Lipofectamine 3000 (Thermo Fisher). 24 h after transfection, the cells were plated on poly-D-lysine coated (Millipore Sigma) tissue culture-treated 96 well white plates with clear bottoms (Perkin Elmer) at 30,000 cells per well in Inositol-free DMEM (MP Biomedicals) supplemented with 5% fetal bovine serum, 4 mM L-glutamine (Millipore Sigma), penicillin-streptomycin, and about 5 uCi (5 ul) per ml myo-[2-3H] inositol (Perkin Elmer). The following day, the media was replaced with agonists that were diluted in HBSS (Millipore Sigma) containing 10 mM lithium chloride (Millipore Sigma) and incubated at 37 °C for 45 min. Then agonists were removed and cells were lysed on ice for 30 min with 10 mM formic acid (Millipore Sigma). 1.25 mg of poly-lysine coated YSI SPA beads (Perkin Elmer) was added to each well. The plates were mixed on an orbital shaker for 30 min. The plates were read on a MicroBeta scintillation counter (Perkin Elmer) the following day. IP accumulation assays on different constructs were performed in n ≥ 3 independent experiments (each done in duplicate), where n is shown in Supplementary Table 2.

The next assay deals with T3, OX2R T135A (Homo sapiens, UniProt O43614, T135A).
T3 construct: FLAG; expressed in transfected cells; host or cells: HEK293
T3 sequence (O43614 whole entry T135A): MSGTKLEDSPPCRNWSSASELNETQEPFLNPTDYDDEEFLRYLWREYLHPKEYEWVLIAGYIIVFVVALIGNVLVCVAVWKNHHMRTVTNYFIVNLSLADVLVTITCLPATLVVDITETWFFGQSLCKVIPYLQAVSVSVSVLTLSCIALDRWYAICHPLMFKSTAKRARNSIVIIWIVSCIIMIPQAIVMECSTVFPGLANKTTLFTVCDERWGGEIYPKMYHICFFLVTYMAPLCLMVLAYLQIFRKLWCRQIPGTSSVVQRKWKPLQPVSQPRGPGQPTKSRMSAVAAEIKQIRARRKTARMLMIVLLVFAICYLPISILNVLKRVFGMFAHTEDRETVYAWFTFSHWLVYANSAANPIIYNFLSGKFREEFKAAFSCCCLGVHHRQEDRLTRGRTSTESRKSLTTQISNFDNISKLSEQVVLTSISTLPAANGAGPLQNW
In words: IP accumulation assay, OX2R T135A. The format is cell-based.
Text: as §1, with “1.25 mg of poly-lysine coated YSI SPA beads (Perkin Elmer) was added to each well. The plates were mixed on an orbital shaker for 30 min.” left out, “IP accumulation assays on different constructs were performed in n ≥ 3 independent experiments (each done in duplicate), where n is shown in Supplementary Table 2.” left out

Another assay deals with T4, OX1R A127T (Homo sapiens, UniProt O43613, A127T).
T4 construct: FLAG; expressed in transfected cells; host or cells: HEK293
T4 sequence (O43613 1-425 A127T): T2 sequence (O43613 1-425 S103T) with T103S, A127T
In words: IP accumulation assay, OX1R A127T. The format is cell-based.
Text: as §1

Where [1] appears, read: 0.75 h, TAK-925 conc (log, M) -4.00.
Where [2] appears, read: 0.75 h, TAK-925 conc (log, M) -4.95.
Setting [3] is: 0.75 h, TAK-925 conc (log, M) -5.43.
[4] abbreviates: 0.75 h, TAK-925 conc (log, M) -5.91.
[5] abbreviates: 0.75 h, TAK-925 conc (log, M) -7.34.
Setting [6] is: relative to OX1R S103T/A127T/TAK-925.

Residue numbers refer to the chain shown, from its start.

A word on the EC50: it is the concentration needed to bring the measured effect to its halfway point. Low values mean higher potency in that assay, high ones lower potency in that assay.

T1 sequence (O43614 whole entry R328A): as the sequence (O43614 whole entry T135A) above, with A135T, R328A counted along it

On to `COC(=O)N1CCC[C@H](NS(C)(=O)=O)[C@@H]1CO[C@H]1CC[C@@H](c2ccccc2)CC1` [TAK-925, methyl (2R,3S)−3-[(methylsulfonyl)amino]−2-{[(cis−4-phenylcyclohexyl)oxy]methyl}piperidine-1-carboxylate], for which the “wakefulness and sleep time” value in the assay with wakefulness was “dose-dependent increase in wakefulness and reduction in sleep time”. For the same compound, the EC50 stood at 3 µM at OX2R R328A, 5.3 µM at OX1R S103T (IP accumulation), 0.58 µM at OX2R T135A (IP accumulation) and 4.7 µM on OX1R A127T (IP accumulation). Moreover, the values for the activation at 100 µM at OX1R S103T (setting [1]) and on OX1R A127T (setting [1]) were 122% and 109%, respectively. Moreover, the activation at 11.2 µM at OX1R S103T (setting [2]) came out at 88.4%; on OX1R A127T (setting [2]), 78.5%. The results for the activation at 3.72 µM on OX1R S103T (setting [3]) and on OX1R A127T (setting [3]) were 57.1% and 56%, respectively. The results for the activation at 1.23 µM at OX1R S103T (setting [4]) and at OX1R A127T (setting [4]) were 21.9% and 27.7%, respectively. Also, the activation at 0.0457 µM on OX1R S103T (setting [5]) was 9.04%; at OX1R A127T (setting [5]), 12%. For the same compound, the results for the Emax on OX1R S103T (setting [6]), at OX2R T135A (relative to OX2R WT/TAK-925) and at OX1R A127T (setting [6]) were 130, 90 and 100, respectively. In addition, the activation at 33.1 µM at OX1R A127T (0.75 h, TAK-925 conc (log, M) -4.48) worked out at 92.5%. On OX1R A127T (0.75 h, TAK-925 conc (log, M) -6.39), this compound had an activation at 0.407 µM of 18.7%. On OX1R A127T (0.75 h, TAK-925 conc (log, M) -7.82), this compound had an activation at 0.0151 µM of 13.1%. At OX1R A127T (0.75 h, TAK-925 conc (log, M) -8.77), this compound registered an activation at 0.0017 µM of 0%. Besides, the “% IP accumulation” value on OX1R A127T (TAK-925 conc (log, M) -8.77) was 0.00%.

Values taken from PMC9133036 (Nature Communications, 2022).
